Values quoted from earlier work in patent publication US11406636B2, “Combined pharmaceutical composition” (Alepharma, Sociedad Anónima Promotora de inversión de …, priority 2017, dated 2022).
Read-outs that look alike come from different tables or passages of the source.

Experiments:
CML formation = conditions: bovine serum with ribose, presence or absence of natural compounds
[1] = tested on: streptozotocin-induced diabetic rat; conditions: for levels of methylglyoxal: increased by 68% in diabetic rats versus normal controls; for levels of glyoxal: increased by 115% in diabetic rats versus normal controls
[2] = tested on: bovine serum albumin, ribonuclease A and human hemoglobin; conditions: in vitro
[3] = not given; remark: listed apart in the source
diabetic rats = conditions: 200 mg/kg weight orally for 8 weeks
[4] = physiological conditions, dose-dependent, forming adducts
[5] = within the first hour under physiological conditions

## CC1(C)[C@@H](O)CC[C@]2(C)[C@H]3C(=O)C=C4[C@@H]5C[C@@](C)(C(=O)O)CC[C@]5(C)CC[C@@]4(C)[C@]3(C)CC[C@@H]12 [glycylrhetinic acid]
CML formation
  formation of CML: significantly inhibited the formation of CML

## Cc1ncc(C[n+]2csc(CCO)c2C)c(N)n1 [thiamine, Thiamine]
[1]
  levels of methylglyoxal: normalized
  levels of glyoxal: normalized
[1]; increased by 74% in diabetic rats
  levels of N-carboxymethyl-lysine (CML): normalized
[1]; increased by 118% in diabetic rats
  levels of N-carboxyethyl-lysine (CEL): normalized
[2]
  inhibition of the formation of AGEs, compared with aminoguanidine: more effective than aminoguanidine

## Cc1ncc(CO)c(CO)c1O [pyridoxine, Pyridoxine]
[2]
  inhibition of the formation of AGEs, compared with aminoguanidine: more effective than aminoguanidine

## Cc1ncc(CO)c(CN)c1O [pyridoxamine]
[2]
  inhibition of the formation of AGEs, compared with aminoguanidine: more effective than aminoguanidine

## O=c1c(O)c(-c2ccc(O)c(O)c2)oc2cc(O)cc(O)c12 [quercetin, Quercetin]
[4]
  glyoxal trapped: up to 50%
[5]
  glyoxal trapped: up to 30%
[3]; [4]
  methylglyoxal trapped: ≤ 80%
[3]; [5]
  methylglyoxal trapped: ≤ 50%
CML formation
  formation of CML: significantly inhibited the formation of CML

## C[C@@H]1O[C@@H](O[C@@H]2[C@@H](O)[C@H](OCCc3ccc(O)c(O)c3)O[C@H](CO)[C@H]2OC(=O)/C=C/c2ccc(O)c(O)c2)[C@H](O)[C@H](O)[C@H]1O [acteoside]
CML formation
  formation of CML: increase the formation of CML

## COc1cc(/C=C/C(=O)CC(=O)/C=C/c2ccc(O)c(OC)c2)ccc1O [curcumin, Curcumin]
Diabetic rats
  accelerated accumulation of AGEs in the collagen, detected by ELISA: prevented
  accumulation of lipid peroxidation products in serums: significantly reduced
  collagen cross-linking in the tendon of the tail and skin: extensively prevented
  oxidative stress: significantly reduced

## CC1(C)[C@@H](O[C@H]2O[C@H](C(=O)O)[C@@H](O)[C@H](O)[C@H]2O[C@@H]2O[C@H](C(=O)O)[C@@H](O)[C@H](O)[C@H]2O)CC[C@]2(C)[C@H]3C(=O)C=C4[C@@H]5C[C@@](C)(C(=O)O)CC[C@]5(C)CC[C@@]4(C)[C@]3(C)CC[C@@H]12 [glycyrrhizin]
CML formation
  formation of CML: significantly inhibited the formation of CML

## O=C(O)c1cc(O)c(O)c(O)c1 [gallic acid]
CML formation
  formation of CML: increase the formation of CML

## C/C(=C(\CCOP(=O)(O)O)SC(=O)c1ccccc1)N(C=O)Cc1cnc(C)nc1N [benfotiamine]
[1]
  levels of methylglyoxal: normalized
  levels of glyoxal: normalized
